Literature values as cited in patent US9999632B2, “Inhibition of pancreatic lipase” (RD Biomed Limited, priority 2009, dated 2018).

Settings: patients treated with Orlistat; cited from earlier work

## CCCCCCCCCCC[C@@H](C[C@@H]1OC(=O)[C@H]1CCCCCC)OC(=O)[C@H](CC(C)C)NC=O [Orlistat, tetrahydrolipstatin]
  patients affected by adverse effects (steatorrhoea, bloating, oily spotting, faecal urgency, faecal incontinence): up to 40 % of patients
